pIC50: −log10 of the molar value.
How the values were obtained:
[1] = system: IL-2-induced JAK1/JAK3 signal pathway; experiment: IL-2-induced proliferation of KHYG-1 cells (JAK1/JAK3 signal); assay type: cell-based, human; conditions: Homo sapiens; KHYG-1 cell proliferation, IL-2 10 ng/mL, 72 hours; read-out: Inhibition activity IC50 on IL-2-induced JAK1/JAK3 signal pathway
Procedure, shortened: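 KHYG-1 NK lymphoma cells were cultured with IL-2 and test compound at various doses for 72 h at 37 °C and 5% CO2, and proliferation was read with alamarBlue fluorescence. Inhibition was normalized to wells without compound or cytokine (0%) and IL-2 wells without compound (100%), and C50 was derived from the dose-inhibition data.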

[2] = system: EPO-induced JAK2 signal pathway; experiment: EPO-induced proliferation of UT-7 cells (JAK2 signal); assay type: cell-based, human; conditions: Homo sapiens, UT7; UT-7 cell proliferation, EPO 10 ng/mL, 72 hours; read-out: Inhibition activity IC50 on EPO-induced JAK2 signal pathway
Procedure, shortened: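 UT-7 cells (15000/well) stimulated with 10 ng/mL human recombinant EPO plus compound at final 0, 100, 1000 or 10000 nM, 72 h at 37° C., 5% CO2. Proliferation by alamarBlue fluorescence (Ex530/Em590); inhibition normalised to no-cytokine/no-compound (0) and EPO-only (100) wells, […] derived from dose-inhibition.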

TYK2 JH2 domain = TYK2 JH2 domain (Homo sapiens (Human), UniProt P29597); experiment: TYK2 JH2 domain FRET tracer assay; assay type: binding; conditions: FRET 665/615 nm; read-out: Inhibition activity IC50 on TYK2 JH2 domain
Sequence of TYK2 JH2 domain (P29597 589-875): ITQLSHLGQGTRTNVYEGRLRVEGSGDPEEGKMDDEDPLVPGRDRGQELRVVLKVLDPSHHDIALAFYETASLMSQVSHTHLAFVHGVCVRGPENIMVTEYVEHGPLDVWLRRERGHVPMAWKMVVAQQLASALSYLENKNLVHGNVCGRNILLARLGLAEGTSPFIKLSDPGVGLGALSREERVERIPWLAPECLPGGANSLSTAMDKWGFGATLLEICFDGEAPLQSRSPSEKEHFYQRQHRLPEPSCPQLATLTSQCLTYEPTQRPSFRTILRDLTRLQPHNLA
Procedure: Compound of the present invention formulated into different concentrations (series 3 times dilutions, started from 60 μM, 11 concentrations in total) was added to 384-well plate, followed by 5 μL of enzyme (i.e., TYK2 JH2 domain), Tb antibody (Cisbio) and tracer. The mixture was incubated at 25° C. for 60 min and left at 4° C. overnight.

[3] = system: INF-α-induced pSTAT5 in human PBMC; experiment: INF-α-induced pSTAT5 in human PBMC (FACS, CD3 positive cells); assay type: cell-based; conditions: Homo sapiens, PBMC, IFN-α 30 ng/ml, read-out: Inhibition activity IC50 on INF-α-induced pSTAT5 in human PBMC
Procedure: hPBMC (available from Shanghai AoNeng Biotechnology Co., Ltd.) was inoculated in 96-well plate, added with compound of the present invention (at concentrations of 40 nM and 200 nM), incubated for 60 min (compound in concentrations of 2 nM, 10 nM respectively during the incubation); added with 30 ng/ml of stimulating factor IFN-α (BioLegend) together with anti-CD3 antibody (Biolegend) and then continued to be incubated for 30 min. After the incubation, each well was added with 1 mL of fixing solution (BD Biosciences), the obtained mixture was incubated for 10 min followed by centrifugation, added with 400 μL/well of Perm III (BD Biosciences), followed by further incubation at 4° C. for 30 min. The obtained mixture was added with mouse anti-human pSTAT5 antibody (Alexa Fluor® 647 Conjugate), followed by incubation at room temperature for 40 min. Fluorescence intensity of pSTAT5 in CD3 positive cells was detected by FACS.
Inhibition rate at individual compound concentration was calculated with the following formula:
Inhibition rate=(MFI value(IFN-α-stimulated control)−MI value(2/10 nM compound treated group)/MFI value(IFN-α-stimulated control)[…]
wherein: MFI value meant fluorescence intensity value; IFN-α-stimulated control meant control group which was operated similarly to the experimental groups but no compound of the present invention was added.

[4] = In-vivo pharmacokinetic test in mice; conditions: mouse, po; BALB/c female mice, gavage 10 mg/kg, plasma
Procedure: LC-MS/MS method is used to determine the drug concentration in the plasma of mice at different times after intragastric administration of the compound of the example. Relevant pharmacokinetic parameters are calculated to study the pharmacokinetic behavior of the compound of the present invention in mice, thereby evaluating the pharmacokinetic characteristics thereof.
Test animal was healthy adult BALB/c female mouse (provided by Chengdu Yaokang Biotechnology Co., Ltd.);
Compound administration and sample collection: compound was administered to BALB/c female mice by gavage (10 mg/kg). At 0.25, 0.5, 1, 2, 4, 6, 8, and 24 hours after administration, 60 μL of whole blood of the mouse fundus venous plexus were collected and centrifuged at 4000 rpm for 10 min to provide plasma.
Sample analysis: 10 μL of mouse plasma samples were respectively added with 290 μL of acetonitrile solution containing internal standard to precipitate proteins. After swirling for 10 min and centrifuging at 4000 rpm for 10 min, 200 μL of supernatant was added to 96-well plate, and analyzed by LC-MS/MS at an injection volume of 1 μL.

SMILES	pIC50 [1]	pIC50 [2]	pIC50 (TYK2 JH2 domain)	pIC50 [3]	AUC [4]	Cmax [4]
CCONC(=O)c1cnc(Nc2cc(C)nc(C)n2)cc1Nc1cccc(-c2ncccn2)c1OC [Example 212]	< 5.00	< 5.00	10.30	> 8.70	16.3 µM·h	15 µM
CCONC(=O)c1cnc(NC(=O)C2CC2)cc1Nc1cccc(-c2ncc(Cl)cn2)c1OC [Example 219, 4-((3-(5-chloropyrimidin-2-yl)-2-methoxyphenyl)amino)-6-(cyclopropylcarboxamido)-N-ethoxy nicotinamide]	< 5.00	< 5.00	9.89	> 8.70	16.8 µM·h	10.3 µM
CCONC(=O)c1cnc(Nc2cc(C)nc(C)n2)cc1Nc1cc(F)cc(-c2ncccn2)c1OC [Example 215, 6-((2,6-dimethylpyrimidin-4-yl)amino)-N-ethoxy-4-((5-fluoro-2-methoxy-3-(pyrimidin-2-yl)phenyl)amino)nicotinamide]	< 5.00	< 5.00	10.15	> 8.70	25.8 µM·h	13.6 µM
CCONC(=O)c1cnc(Nc2cc(C)nc(C)n2)cc1Nc1ccc(C(F)(F)F)cc1N(C)S(C)(=O)=O [Example 202, 6-((2,6-dimethylpyrimidin-4-yl)amino)-N-ethoxy-4-((2-(N-methylmethanesulfonamido)-4-(trifluoromethyl)phenyl)amino)nicotinamide]	< 5.00	< 5.00	10.22	> 8.70		
CCONC(=O)c1cnc(Nc2cc(C)nc(C)n2)cc1Nc1cccc(-c2ncc(C)cn2)c1OC [Example 238, 6-((2,6-dimethylpyrimidin-4-yl)amino)-N-ethoxy-4-((2-methoxy-3-(5-methylpyrimidin-2-yl)phenyl)amino)nicotinamide]	< 5.00	< 5.00		> 8.70	39.9 µM·h	15.1 µM
